Source: patent US10144742B2 (Millennium Pharmaceuticals, Inc., priority 2014, dated 2018)
Read-outs that look alike come from different tables or passages of the source.

What was measured:
hNAMPT protein = hNAMPT protein (Homo sapiens (Human), UniProt P43490); assay: NAMPT enzyme assay (TR-FRET/HTRF, BodiPY ligand, anti 6His-Tb); type: binding; conditions: for IC50: read-out: IC50; for inhibition at 1 µM: read-out: Percent Inhibition
Method in brief: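 TR-FRET binding assay in which His-tagged human NAMPT with anti-6His-Tb is displaced by compound from a BodiPY ligand, incubated 1 h at rt in the dark. Excitation was at 320 nm, with the 520/486 nm emission ratio read. IC50 was fitted from inhibition relative to DMSO controls.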

PC3 cells = assay: PC3 growth inhibition (Cell-titer glo, 72 hours); type: cell-based; conditions: Homo sapiens, PC-3, PC3 cells, 72 hours, Cell-titer glo, read-out: Percent Inhibition (PC3 growth inhibition); for inhibition at 1 µM: compound concentration 1 μM; for inhibition at 1.667 µM: compound concentration 1.667 μM
Method in brief: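 PC3 cells in RPMI1640 seeded overnight at 37 °C, 5% CO2, then exposed to compound diluted in AIM serum-free medium for 72 h. Viability by CellTiter-Glo luminescence vs DMSO controls; single-concentration % remaining viability (1 μM or 1.667 μM), or GI50/LD50 from curves.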

[1] = NAMPT inhibition at compound concentration 1 μM
[2] = NAMPT inhibition, IC50 range class

Chain of hNAMPT protein (P43490 whole entry): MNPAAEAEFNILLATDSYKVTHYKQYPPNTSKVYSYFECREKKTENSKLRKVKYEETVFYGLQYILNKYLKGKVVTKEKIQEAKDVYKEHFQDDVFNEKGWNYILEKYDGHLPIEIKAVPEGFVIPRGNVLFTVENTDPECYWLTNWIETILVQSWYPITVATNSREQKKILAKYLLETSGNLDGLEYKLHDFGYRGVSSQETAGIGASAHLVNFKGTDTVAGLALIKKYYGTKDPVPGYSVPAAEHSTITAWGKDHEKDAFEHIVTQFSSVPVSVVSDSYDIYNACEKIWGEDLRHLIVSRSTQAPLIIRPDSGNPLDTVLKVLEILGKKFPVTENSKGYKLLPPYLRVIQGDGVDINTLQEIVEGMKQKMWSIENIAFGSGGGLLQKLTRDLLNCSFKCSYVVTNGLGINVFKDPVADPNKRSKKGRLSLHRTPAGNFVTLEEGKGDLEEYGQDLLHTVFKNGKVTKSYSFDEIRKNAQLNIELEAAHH

Compound: O=C(NCCCn1ccnc1)c1ccc2nc(-c3cccc(OC(F)(F)F)c3)c(-c3ccccc3)nc2c1 [Compound I-61, N-[3-(1H-imidazol-1-yl)propyl]-3-phenyl-2-[3-(trifluoromethoxy)phenyl]quinoxaline-6-carboxamide]
- IC50 (hNAMPT protein; NAMPT IC50 range class): 100 to 500 nM
- inhibition at 1 µM (hNAMPT protein; compound concentration 1 μM): 75%
- inhibition at 1 µM (PC3 cells): -7%

Compound: COc1ccc(-c2nc3ccc(C(=O)NCCCn4ccnc4)cc3nc2-c2ccccc2)cc1 [Compound I-99, N-[3-(1H-imidazol-1-yl)propyl]-2-(4-methoxyphenyl)-3-phenylquinoxaline-6-carboxamide]
- IC50 (hNAMPT protein; NAMPT IC50 range class): 100 to 500 nM
- inhibition at 1 µM (hNAMPT protein; compound concentration 1 μM): 75%
- inhibition at 1 µM (PC3 cells): -8%

Compound: COc1cccc(-c2nc3ccc(C(=O)NCCc4ncc[nH]4)cc3nc2-c2cccc(OC)c2)c1 [Compound I-134, N-[2-(1H-imidazol-2-yl)ethyl]-2,3-bis(3-methoxyphenyl)quinoxaline-6-carboxamide]
- IC50 (hNAMPT protein; NAMPT IC50 range class): 500 to 1000 nM
- inhibition at 1 µM (hNAMPT protein; compound concentration 1 μM): 65%
- inhibition at 1 µM (PC3 cells): -3%

Compound: COc1ccc(-c2nc3cc(C(=O)NCCCc4ncc[nH]4)ccc3nc2-c2ccc(F)cc2)cc1F [Compound I-470, 3-(3-fluoro-4-methoxyphenyl)-2-(4-fluorophenyl)-N-[3-(1H-imidazol-2-yl)propyl]quinoxaline-6-carboxamide]
- inhibition at 1 µM (hNAMPT protein; [1]): 81%
- IC50 (hNAMPT protein; [2]): 100 to 500 nM
- inhibition at 1.667 µM (PC3 cells): 2%

Compound: NC(=O)c1ccc(-c2nc3ccc(C(=O)NCCCn4ccnc4)cc3nc2-c2ccccc2)cc1 [Compound I-190, 2-(4-carbamoylphenyl)-N-[3-(1H-imidazol-1-yl)propyl]-3-phenylquinoxaline-6-carboxamide]
- IC50 (hNAMPT protein; NAMPT IC50 range class): 100 to 500 nM
- inhibition at 1 µM (hNAMPT protein; compound concentration 1 μM): 74%
- inhibition at 1 µM (PC3 cells): -6%

Compound: O=C(NCCCc1ncc[nH]1)c1ccc2nc(N3CCC(O)CC3)c(-c3ccc(Cl)cc3)nc2c1 [Compound I-298, 3-(4-chlorophenyl)-2-(4-hydroxypiperidin-1-yl)-N-[3-(1H-imidazol-2-yl)propyl]quinoxaline-6-carboxamide]
- IC50 (hNAMPT protein; NAMPT IC50 range class): < 100 nM
- inhibition at 1 µM (hNAMPT protein; compound concentration 1 μM): > 99%
- inhibition at 1.667 µM (PC3 cells): 2%

Compound: O=C(NCCCc1ncc[nH]1)c1ccc2nc(-n3nccn3)c(-c3ccc(F)cc3)nc2c1 [Compound I-330, N-(3-(1H-imidazol-2-yl)propyl)-3-(4-fluorophenyl)-2-(2H-1,2,3-triazol-2-yl)quinoxaline-6-carboxamide]
- IC50 (hNAMPT protein; NAMPT IC50 range class): 100 to 500 nM
- inhibition at 1 µM (hNAMPT protein; compound concentration 1 μM): 79%
- inhibition at 1.667 µM (PC3 cells): 3%

Compound: O=C(NCc1ccc2[nH]cnc2c1)c1ccc2nc(N3CCOCC3)c(-c3ccc(F)cc3)nc2c1 [Compound I-132, N-(1H-Benzimidazol-5-ylmethyl)-3-(4-fluorophenyl)-2-(morpholin-4-yl)quinoxaline-6-carboxamide]
- IC50 (hNAMPT protein; NAMPT IC50 range class): 500 to 1000 nM
- inhibition at 1 µM (hNAMPT protein): 56%
- inhibition at 1.667 µM (PC3 cells): 2%

Compound: Cc1cccc(-c2nc3cc(C(=O)NCCCc4ncc[nH]4)ccc3nc2-c2ccc(F)cc2)c1 [Compound I-395, 2-(4-fluorophenyl)-N-[3-(1H-imidazol-2-yl)propyl]-3-(3-methylphenyl)quinoxaline-6-carboxamide]
- inhibition at 1 µM (hNAMPT protein; [1]): 83%
- IC50 (hNAMPT protein; [2]): 100 to 500 nM
- inhibition at 1.667 µM (PC3 cells): 2%

Compound: O=C(NCCCc1ncc[nH]1)c1ccc2nc(C3=CCOCC3)c(-c3cccs3)nc2c1 [Compound I-300, 2-(3,6-dihydro-2H-pyran-4-yl)-N-[3-(1H-imidazol-2-yl)propyl]-3-(2-thienyl)quinoxaline-6-carboxamide]
- IC50 (hNAMPT protein; NAMPT IC50 range class): < 100 nM
- inhibition at 1 µM (hNAMPT protein; compound concentration 1 μM): > 99%
- inhibition at 1.667 µM (PC3 cells): 32%

Compound: O=C(NCCCn1ccnc1)c1ccc2nc(-c3ccccn3)c(-c3ccccc3)nc2c1 [Compound I-92, N-[3-(1H-imidazol-1-yl)propyl]-3-phenyl-2-(pyridin-2-yl)quinoxaline-6-carboxamide]
- IC50 (hNAMPT protein; NAMPT IC50 range class): 1000 to 2000 nM
- inhibition at 1 µM (hNAMPT protein; compound concentration 1 μM): 48%
- inhibition at 1 µM (PC3 cells): -7%

Compound: COc1cccc(-c2nc3cc(C(=O)NCCCc4cccnc4)ccc3nc2N2CCC(N3CCOCC3)CC2)c1 [Compound I-70, 3-(3-methoxyphenyl)-2-[4-(morpholin-4-yl)piperidin-1-yl]-N-[3-(pyridin-3-yl)propyl]quinoxaline-6-carboxamide]
- IC50 (hNAMPT protein; NAMPT IC50 range class): < 100 nM
- inhibition at 1 µM (hNAMPT protein; compound concentration 1 μM): > 99%
- inhibition at 1.667 µM (PC3 cells): 2%
